The target of one assay is T1, Or82a (Drosophila melanogaster, UniProt P82986).
T1 sequence (P82986 1-385): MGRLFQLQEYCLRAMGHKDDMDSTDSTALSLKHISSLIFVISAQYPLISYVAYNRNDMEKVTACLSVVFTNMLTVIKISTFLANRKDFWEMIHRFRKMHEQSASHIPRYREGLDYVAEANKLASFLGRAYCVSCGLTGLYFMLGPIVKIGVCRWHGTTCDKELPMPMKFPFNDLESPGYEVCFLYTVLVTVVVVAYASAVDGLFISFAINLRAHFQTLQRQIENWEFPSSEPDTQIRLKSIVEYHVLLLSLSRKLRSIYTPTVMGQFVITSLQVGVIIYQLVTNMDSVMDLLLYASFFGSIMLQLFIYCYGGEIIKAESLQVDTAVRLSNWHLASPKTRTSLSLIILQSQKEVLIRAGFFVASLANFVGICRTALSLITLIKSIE
T1 sequence (Q9VNB5 1-486 partner): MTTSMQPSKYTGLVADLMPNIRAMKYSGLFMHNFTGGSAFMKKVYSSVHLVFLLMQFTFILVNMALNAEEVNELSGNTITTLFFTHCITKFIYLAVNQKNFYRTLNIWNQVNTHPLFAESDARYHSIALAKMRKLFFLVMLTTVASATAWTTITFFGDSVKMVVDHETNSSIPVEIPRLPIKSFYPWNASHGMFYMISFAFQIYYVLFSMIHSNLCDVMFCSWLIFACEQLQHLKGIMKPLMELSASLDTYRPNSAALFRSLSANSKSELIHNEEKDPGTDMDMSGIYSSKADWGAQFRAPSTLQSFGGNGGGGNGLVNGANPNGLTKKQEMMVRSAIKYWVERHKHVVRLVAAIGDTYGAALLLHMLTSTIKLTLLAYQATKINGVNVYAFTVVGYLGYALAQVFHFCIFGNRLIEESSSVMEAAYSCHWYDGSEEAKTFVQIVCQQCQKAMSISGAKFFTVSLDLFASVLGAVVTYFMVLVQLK
Particulars: single strong ligand of the training set; cited from earlier work.

The next assay has as its system CO2 responsive neurons. As to conditions: […]; averaged across the top 2 responders of the 4 species; cited from earlier work.
For a further assay, the target named is T2, Or59b, ab2A (Drosophila melanogaster, UniProt Q9W1P8).
T2 construct: The 9 Ors tested are expressed in well-defined olfactory receptor neurons (ORNs) housed within the large and small basiconic sensilla; from tissue; host or cells: D. melanogaster antenna, ab2A olfactory receptor neuron (in vivo recording)
T2 sequence (Q9W1P8 1-398): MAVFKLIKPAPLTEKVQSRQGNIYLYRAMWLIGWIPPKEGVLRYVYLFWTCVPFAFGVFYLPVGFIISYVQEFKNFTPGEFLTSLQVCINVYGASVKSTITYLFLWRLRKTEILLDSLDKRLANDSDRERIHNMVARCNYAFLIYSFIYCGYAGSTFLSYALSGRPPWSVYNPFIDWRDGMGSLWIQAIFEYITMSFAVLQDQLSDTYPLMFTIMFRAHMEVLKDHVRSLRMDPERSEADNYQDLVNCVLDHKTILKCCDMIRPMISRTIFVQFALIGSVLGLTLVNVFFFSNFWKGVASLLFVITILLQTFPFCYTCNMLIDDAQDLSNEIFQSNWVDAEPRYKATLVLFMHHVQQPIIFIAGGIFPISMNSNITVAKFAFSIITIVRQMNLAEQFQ
T2 sequence (Q9VNB5 1-486 partner): T1 sequence (Q9VNB5 1-486 partner)
Description: single-sensillum electrophysiology. Type of assay: in vivo. As to conditions: odorant at 10^-2. The procedure:
(§1) The results of the in silico screen are provocative. However in order to verify whether these predictions were meaningful, functional evidence was obtained. In order to validate the success of the in silico predictions the responses of 9 Odor receptors using single-sensillum electrophysiology directly on the Drosophila melanogaster antenna were analyzed. For each Odor receptor several odorants were tested from the top 500 predicted hits. A sampling of ˜192 novel odorants were tested with ˜11-21 novel odorants tested for each receptor, which were scattered somewhat randomly within the top 500 predictions for each receptor, providing a relatively unbiased set of chemical structures.
(§2) To test identified compounds any number of biological assays can be used to measure ORN activity in the presence of a putative ligand/compounds. […] For the purpose of testing each of these volatile compounds the compounds were diluted to ˜10^−2 in paraffin oil or distilled water. The 9 Ors tested are expressed in well-defined olfactory receptor neurons (ORNs) housed within the large and small basiconic sensilla (ab1-ab7) on the antenna. A previously identified diagnostic panel of odorants was used to distinguish individual classes of sensilla (ab1-ab7) and therefore identified the sensilla that contained the target Or expressing ORN. […]

The next assay concerns the target T3, Or98a, ab7A (Drosophila melanogaster, UniProt Q9VAZ3).
T3 construct: The 9 Ors tested are expressed in well-defined olfactory receptor neurons (ORNs) housed within the large and small basiconic sensilla; from tissue; host or cells: D. melanogaster antenna, ab7A olfactory receptor neuron (in vivo recording)
T3 sequence (Q9VAZ3 1-397): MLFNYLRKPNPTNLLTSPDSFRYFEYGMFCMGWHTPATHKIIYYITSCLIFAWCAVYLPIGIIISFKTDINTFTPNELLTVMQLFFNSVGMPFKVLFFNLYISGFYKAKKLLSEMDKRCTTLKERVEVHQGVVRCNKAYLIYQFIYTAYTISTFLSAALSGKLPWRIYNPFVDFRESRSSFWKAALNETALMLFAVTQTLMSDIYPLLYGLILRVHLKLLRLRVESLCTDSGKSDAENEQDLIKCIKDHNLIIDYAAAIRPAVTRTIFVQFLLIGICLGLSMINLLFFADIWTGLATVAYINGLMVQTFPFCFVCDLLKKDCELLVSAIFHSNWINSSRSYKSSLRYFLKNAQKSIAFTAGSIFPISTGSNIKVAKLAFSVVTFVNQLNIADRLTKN
T3 sequence (Q9VNB5 1-486 partner): T1 sequence (Q9VNB5 1-486 partner)
Description: single-sensillum electrophysiology. It counts as in vivo. Particulars: odorant at 10^-2. The procedure: as §1, §2

The text below walks through data of patent US9307763B2, “Ligands for odor receptors and olfactory neurons” (The Regents of the University of California, priority 2010, dated 2016).

For the compound `CC(=O)OC/C=C(\C)CCC=C(C)C` [geranyl acetate, reference compound], the “activation of Or82a” value at Or82a is “activated strongly”. In addition, the “Final Activity” value in the assay on CO2 responsive neurons was 0.

For the compound `CC(=O)OC(C)C` [isopropyl acetate], on Or59b, ab2A, the “activation of odor receptor (firing rate)” value is listed as greater than 250 spikes/sec. Turning to `CC(=O)OCC=C(C)C` [prenyl acetate], at Or98a, ab7A, the “activation of odor receptor (firing rate)” value is recorded as greater than 250 spikes/sec.
